The results in this text go back to patent US9012166B2, “Method for assaying histone methylation enzyme activity” (Kyushu Institute of Technology, priority 2010, dated 2015).

This test addresses T1, G9a (Mus musculus, UniProt Q9Z148).
T1 sequence (Q9Z148 1-1263): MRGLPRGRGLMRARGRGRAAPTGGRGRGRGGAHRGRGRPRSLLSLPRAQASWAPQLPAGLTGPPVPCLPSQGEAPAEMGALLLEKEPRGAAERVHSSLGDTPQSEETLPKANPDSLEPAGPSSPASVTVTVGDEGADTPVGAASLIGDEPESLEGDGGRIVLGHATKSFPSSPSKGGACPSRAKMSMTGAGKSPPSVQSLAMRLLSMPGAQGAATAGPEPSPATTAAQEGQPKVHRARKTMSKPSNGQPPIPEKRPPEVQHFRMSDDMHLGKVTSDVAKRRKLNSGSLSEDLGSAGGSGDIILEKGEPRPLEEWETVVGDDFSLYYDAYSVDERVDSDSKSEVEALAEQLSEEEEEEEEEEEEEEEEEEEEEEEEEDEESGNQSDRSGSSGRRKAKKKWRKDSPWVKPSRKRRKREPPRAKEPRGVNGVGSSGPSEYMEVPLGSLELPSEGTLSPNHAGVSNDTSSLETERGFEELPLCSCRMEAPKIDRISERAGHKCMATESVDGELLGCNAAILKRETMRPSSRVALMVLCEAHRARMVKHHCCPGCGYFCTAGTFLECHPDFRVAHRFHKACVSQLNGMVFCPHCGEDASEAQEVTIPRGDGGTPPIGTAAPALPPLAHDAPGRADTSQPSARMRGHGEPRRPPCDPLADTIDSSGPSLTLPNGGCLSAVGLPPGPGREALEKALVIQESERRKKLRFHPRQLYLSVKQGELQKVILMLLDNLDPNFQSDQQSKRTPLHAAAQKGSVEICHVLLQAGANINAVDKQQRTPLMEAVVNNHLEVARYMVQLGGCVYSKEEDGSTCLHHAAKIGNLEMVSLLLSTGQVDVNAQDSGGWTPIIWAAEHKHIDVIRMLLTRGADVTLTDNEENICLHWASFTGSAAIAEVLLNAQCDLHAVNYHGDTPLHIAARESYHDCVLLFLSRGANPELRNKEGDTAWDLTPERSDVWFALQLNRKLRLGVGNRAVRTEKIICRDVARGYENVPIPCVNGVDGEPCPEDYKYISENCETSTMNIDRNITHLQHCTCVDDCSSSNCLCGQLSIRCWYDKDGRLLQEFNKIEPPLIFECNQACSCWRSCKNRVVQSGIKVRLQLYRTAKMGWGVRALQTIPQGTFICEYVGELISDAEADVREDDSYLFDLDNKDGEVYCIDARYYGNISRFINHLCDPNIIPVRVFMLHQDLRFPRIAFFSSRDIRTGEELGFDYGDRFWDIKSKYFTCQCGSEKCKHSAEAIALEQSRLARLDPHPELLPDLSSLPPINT
As to the kind of experiment: Western blot evaluation of histone methyltransferase inhibitor, G9a. It is filed as biochemical. Particulars: FIG. 17. As for the experimental part:
To examine whether the activity of a histone methyltransferase inhibitor could be evaluated by an assay for measuring histone methyltransferase activity using a peptidyl MCA, the assay for measuring histone methyltransferase activity was attempted. However, the activity of gliotoxin as a histone methyltransferase inhibitor was evaluated by Western blot, prior to the assay for measuring histone methyltransferase activity. Gliotoxin is known not to inhibit the methylation activity of Set9 but to inhibit the methylation activity of G9a. […] The following assay for measuring histone methyltransferase activity was carried out in order to examine whether the same results as those from the Western blot could also be obtained from the assay for measuring histone methyltransferase activity.

`CN1C(=O)[C@]23CC4=CC=C[C@H](O)[C@H]4N2C(=O)[C@@]1(CO)SS3` [gliotoxin]: the “inhibition of the methylation of G9a (Western blot)” value was “inhibited”.
